Like-named read-outs stand apart in the source and are kept apart here.
Work on “Methyl (2R)-3-[3-[21-(benzenesulfonyl)-9,9,24,30-tetrafluoro-3,6-dimethyl-)1-oxa-26-thia-3,4,15,21,32,33-hexazahexacyclo[25.3.1.12,5.112,15.017,25.018,22]tritriaconta-1(31),2(33),4,12(32),13,17,19,22,24,27,29-undecaen-6-yl]phenyl]-2-methylpropanoate” yielded a ring closure, isolated yield (other bond, 19-membered ring, CMBP, toluene, 150.0 °C, 3 steps) of 11.6%.

Compound `Cc1ccc(S(=O)(=O)n2ccc3c4c(c(F)cc32)Sc2ccc(F)c(c2)-c2ccn(n2)C(c2cccc(Br)c2)CCOCC(C)(C)c2cn(nn2)C4)cc1` (centres unmarked) has a ring closure, isolated yield (from C#CC(C)(C)COCCC(c1cccc(Br)c1)n1ccc(-c2cc(Sc3c(F)cc4c(ccn4S(=O)(=O)c4ccc(C)cc4)c3CN=[N+]=[N-])ccc2F)n1, triazole bond, 19-membered ring, Cu(MeCN)4BF4 (0.1 eq)/TBTA (0.1 eq), DCM, 43.4 mM, 45.0 °C) of 61%.

Work on `COC(=O)/C=C/c1cccc(C2(C)CCCC#Cc3nc(cs3)Cc3c(c(F)cc4c3ccn4S(=O)(=O)c3ccc(C)cc3)Oc3ccc(F)c(c3)-c3ncc2[nH]3)c1` (centres unmarked) yielded a ring closure, isolated yield (from C#CCCCC(C)(c1cccc(/C=C/C(=O)OC)c1)c1cnc(-c2cc(Oc3c(F)cc4c(ccn4S(=O)(=O)c4ccc(C)cc4)c3Cc3csc(I)n3)ccc2F)[nH]1, cc_pd bond, 19-membered ring, PdCl2(PPh3)2/CuI/TEA, DMF, 10.6 mM, 60.0 °C) of 15%.

`Cn1nc2nc1-c1cc(ccc1F)Sc1c(F)cc3c(ccn3S(=O)(=O)c3ccccc3)c1Cn1cc(cn1)C(C)(C)C/C=C\CC2(C)c1cccc(Br)c1` (centres unmarked) showed a ring closure, isolated yield (rcm bond, 19-membered ring) of 79%.

Compound `C#CC(C)(C)CCCCC(C)(c1cccc(CCC(=O)OC)c1)c1csc(-c2cc(Oc3c(F)cc4[nH]ccc4c3CN=[N+]=[N-])ccc2F)n1` (centres unmarked) has a ring closure, isolated yield (the molecule shown is the open-chain precursor, triazole bond, 19-membered ring) of 77%.

Work on “Mixture of 21-(benzenesulfonyl)-6-(3-bromophenyl)-24,30-difluoro-10,10-dimethyl-9,26-dioxa-5,12,13,21,33-pentazahexacyclo[25.3.1.12,5.112,15.017,25.018,22]tritriaconta-1(31),2(33),3,13,15(32),17,19,22,24,27,29-undecaene and 22-(benzenesulfonyl)-7-(3-bromophenyl)-25,31-difluoro-11,11-dimethyl-10,27-dioxa-5,6,13,14,22-pentazahexacyclo[26.3.1.113,16.02,6.018,26.019,23]tritriaconta-1(32),2,4,14,16(33),18,20,23,25,28,30-undecaene” yielded a ring closure, isolated yield (other bond, 19-membered ring, CMBP, 1,4-dioxane, 24.7 mM, 145.0 °C) of 55%.

In the case of `Cn1cc2nc1-c1cccc(c1)Oc1c(F)cc3[nH]ccc3c1Cn1cc(nn1)C(C)(C)OCCCC2(C)c1cccc(Br)c1` (centres unmarked), the ring closure, isolated yield (from C#CC(C)(C)OCCCC(C)(c1cccc(Br)c1)c1cn(C)c(-c2cccc(Oc3c(F)cc4[nH]ccc4c3CN=[N+]=[N-])c2)n1, triazole bond, 19-membered ring, Cu(MeCN)4BF4/TBTA, DCM, 3.2 mM, 45.0 °C) is reported as 60%.

`Cn1nc2nc1-c1cc(ccc1F)Oc1c(F)cc3c(ccn3S(=O)(=O)c3ccccc3)c1Cn1cc(cn1)C(C)(C)C/C=C\CC2(C)c1cccc(Br)c1` (centres unmarked) gave a ring closure, isolated yield (rcm bond, 19-membered ring, Grubbs II, toluene, 100.0 °C) of 62%.

`Cn1nc2nc1-c1cc(ccn1)Oc1c(F)cc3[nH]ccc3c1Cn1cc(nn1)C(C)(C)CCCC[C@]2(C)c1cccc(I)c1` showed a ring closure, isolated yield (triazole bond, 19-membered ring, 4 steps) of 22.1%.

`CC1(c2cccc(I)c2)CCCC(O)CNC(=O)/C=C/c2c(c(F)cc3[nH]ccc23)Oc2ccc(F)c(c2)-c2ncc1[nH]2` (centres unmarked) showed a ring closure, isolated yield (from CC(CCCC(O)CN)(c1cccc(I)c1)c1cnc(-c2cc(Oc3c(F)cc4[nH]ccc4c3/C=C/C(=O)O)ccc2F)[nH]1, amide bond, 19-membered ring, EDC.HCl/HOBt, THF/DMF 10:1, 102.0 mM, 18.0 h) of 40%.

Work on `CCOC(=O)C(C)Cc1cccc(C2(C)CCC(C)(C)COc3ccn(n3)Cc3c(c(F)cc4c3ccn4S(=O)(=O)c3ccccc3)Oc3ccc(F)c(c3)-c3nc2nn3C)c1` (single isomer, unassigned; isomer 2) yielded a ring closure, isolated yield (from CCOC(=O)C(C)Cc1cccc(C(C)(CCC(C)(C)COc2cc[nH]n2)c2nc(-c3cc(Oc4c(F)cc5c(ccn5S(=O)(=O)c5ccccc5)c4CO)ccc3F)n(C)n2)c1, other bond, 18-membered ring, CMBP, toluene, 13.6 mM, 150.0 °C, 1.0 h) of 21%.

Work on `Cc1ccc(S(=O)(=O)n2ccc3c4c(c(F)cc32)Sc2cccc(c2)-c2ccn(n2)C(c2cccc(Br)c2)CCCCC(C)(C)c2cn(nn2)C4)cc1` (centres unmarked) yielded a ring closure, isolated yield (triazole bond, 19-membered ring, 3 steps) of 22.5%.

Work on `CCOC(=O)C(C)Cc1cccc(C2(C)CCC(C)(C)COc3cn(nn3)Cc3c(c(F)cc4c3ccn4S(=O)(=O)c3ccccc3)Oc3ccc(F)c(c3)-c3nc2nn3C)c1` (centres unmarked) yielded a ring closure, isolated yield (from CCOC(=O)C(C)Cc1cccc(C(C)(CCC(C)(C)CO)c2nc(-c3cc(Oc4c(F)cc5c(ccn5S(=O)(=O)c5ccccc5)c4Cn4cc(O)nn4)ccc3F)n(C)n2)c1, ether bond, 19-membered ring, CMBP, toluene, 11.3 mM, 150.0 °C, 1.0 h) of 50%.

With `CCOC(=O)CCc1cccc(C2CC/C=C/CC(C)(C)c3cnn(c3)Cc3c(c(F)cc4c3ccn4S(=O)(=O)c3ccc(C)cc3)Oc3ccc(F)c(c3)-c3ccn2n3)c1` (centres unmarked) the ring closure, isolated yield (from C=CCCC(c1cccc(CCC(=O)OCC)c1)n1ccc(-c2cc(Oc3c(F)cc4c(ccn4S(=O)(=O)c4ccc(C)cc4)c3Cn3cc(C(C)(C)CC=C)cn3)ccc2F)n1, rcm bond, 20-membered ring, Hoveyda-Grubbs II, toluene, 1.26 mM, 60.0 °C, 12.0 h) was 66%.

— US20250248975
